Reference: US8628792B2, “Drug cores for sustained release of therapeutic agents” (Mati Therapeutics, Inc., priority 2007, dated 2014)
“And” between values parts separate entries of the source, which are not always exact repeats. Equal values may be shown once. Blank lines part the entries; values can stand above or below the molecule they belong to.

Tests used:
[1] = In vitro elution study of drug cores (drug in silicone matrix in polyimide tube) in 7.4 pH buffer, HPLC; assay type: physicochemical; conditions: for Duration: calculated time when ~10% of drug remains
Text: Drug cores as described above have been fabricated with different cross sectional sizes of 0.006 inches, 0.012 inches, and 0.025 inches, and drug concentrations of 5%, 10% and 20% in a silicone matrix. Theses drug cores can be made with a Syringe Tube and Cartridge Assembly, Mixing Latanoprost with Silicone, and Injecting the mixture into a polyimide tube which is cut to desired lengths and sealed. The length of the drug cores were approximately 0.80 to 0.95 mm, which for a diameter of 0.012 inches (0.32 mm) corresponds to total Latanoprost content in the drug cores of approximately 3.5 μg, 7 μg and 14 μg for concentrations of 5%, 10% and 20%, respectively.
Mix Latanoprost with Silicone. Prepare Latanoprost. Latanoprost is provided as a 1% solution in methylacetate. Place the appropriate amount of solution into a dish and using a nitrogen stream, evaporate the solution until only the Latanoprost remains. Place the dish with the Latanoprost oil under vacuum for 30 minutes. Combine Latanoprost with silicone. Prepare three different concentrations of Latanoprost (5%, 10% and 20%) in silicone Nusil 6385 and inject it into tubing of different diameters (0.006 in, 0.012 in and 0.025 inches) to generate 3×3 matrixes. The percent of Latanoprost to silicone is determined by the total weight of the drug matrix. Calculation: Weight of Latanoprost/(weight of Latanoprost+weight of silicone)×100=percent drug.
Inject tube. 1. Insert Cartridge and Polyimide tubes assembly into 1 ml syringe. 2. Add one drop of catalyst, (MED-6385 Curing Agent) in the syringe. 3. Force excess catalyst out of the polyimide tube with clean air. 4. Fill syringe with silicone drug matrix. 5, Inject tube with drug matrix until the tube is filled or the syringe plunger becomes too difficult to push. 6. Close off the distal end of the polyimide tube and maintain pressure until the silicone begins to solidify. 7. Allow to cure at room temperature for 12 hours. 8. Place under vacuum for 30 minutes. 9. Place tube in right size trim fixture (prepared in house to hold different size tubing) and cut drug inserts to length (0.80-0.95 mm).
Testing. Elution study (in vitro). 1. Place 10 plugs of same size and same concentration per centrifuge tube and add 1.5 ml of 7.4 pH buffer solution to it. 2. Change the solvent with fresh 7.4 pH buffer after appropriate time. 3. Take HPLC of the elutant at 210 nm with PDA detector 2996 using Sunfire C18, 3 mm×10 mm column (Waters Corporation, Milford, Mass.). Acetonitrile and water mixture is used for gradient elution. Calibration was done in house before and after each analysis, using in-house standards with precisely weighed concentration of Latanoprost. 4. Calculate the amount of drug release per day per device for different size tubings having different concentrations of Latanoprost. 5. Plot elution rate vs area and concentration for day 1 and day 14.

[2] = Inclusion (droplet) diameter in silicone/latanoprost cores, scanning electron micrographs; assay type: physicochemical; conditions: for average inclusion diameter and standard deviation: latanoprost-silicone mixture, n=40 inclusion; for average diameter of latanoprost droplets: silicone matrix
Procedure: A two part silicone formulation (MED6385, Nusil Technologies) was used in the preparation of a composite resin containing latanoprost, which was used to fill a section of polyimide sheathing. The sheathing containing the polymerized silicone incorporates discrete latanoprost domains, existing in the form of droplets of less than about 25 μm maximum diameter, within the matrix. Several experiments were conducted.
Part A of the MED6385 silicone formulation was mixed with 0.43 μL of Part B, the tin catalyst, using syringes, to bring about partial coagulation of the polymer over 30 minutes. Then, 37 mg of that material was mixed with a premixed solution of 0.144 additional catalyst and 13 mg latanoprost, and that mixture could be further mixed by sonication with an ultrasonic probe. The resulting mixture was transferred to a syringe needle connected to a HP7x syringe adapter, which is connected to an EFD pump, which is in turn connected to a compressed air system and the delivery pressure set to 40 psi. The silicone-latanoprost mixture is then extruded down the length (10 cm) of polyimide tubing (IWG High Performance Conductors, Inc.). When the viscous mixture reached the bottom of polyimide tubing, clamps were applied at the bottom of the tubing and at the top connection with the syringe adapter, then pressure is released and the tubing section removed. The clamped section of tubing was placed in a humidity chamber (Thunder Scientific) for curing at 40° C. and 80% relative humidity (RH) for approximately 16-24 hrs.
Scanning electron micrographs of the sheath containing the cured matrix, i.e., the filled precursor sheath, are shown in FIG. 15A-D at the magnifications indicated. The inserts were sectioned cryogenically. FIGS. 15A and 15B, respectively, show the insert cores wherein the extrusion was carried at 40° C. (A) or 25° C. (B).
The temperature of the mixture, and of the associated apparatus involved in filling the polyimide sheath was held at various temperatures during the injection process. Among the temperatures used were a slightly elevated temperature (40° C.), approximate room temperature (25° C.), and subambient temperatures, such as 0° C., −5° C., and −25° C. The subambient injection procedures are provided in this Example.
Scanning electron micrographs of the sheath containing the cured matrix, i.e., the filled precursor sheath, are shown in FIG. 15A-D at the magnifications indicated. The inserts were sectioned cryogenically. FIGS. 15C and 15D show the results of extrusions carried out at 0° C. and −25° C. respectively. They can be compared with FIGS. 15A and 15B that were carried out at ambient temperature (25° C.) or above (40° C.).
Measurements of average inclusion diameters, and standard deviation thereof, are as shown: […]

IOP = conditions: cited from earlier work
[3] = Latanoprost content per 1 mm section divided from a filled precursor tube; assay type: physicochemical
Procedure: (squares) unexpectedly produced a more uniform distribution of therapeutic agent latanoprost in the silicone matrix, after curing, along the entire length of the 10 cm precursor sheath, which was subsequently divided into 1 mm sections, and the latanoprost content of each sections (drug insert) determined. Extrusions carried out at room temperature (circles) and at 40° C. […] The results are significant in terms of manufacturing medically useful devices, as it is desirable to maintain a uniform content of the therapeutic agent among a plurality of drug inserts manufactured by this method.
Measurements of average latanoprost content (μg) per 1 mm section (core) divided (razor blade) from a filled precursor tube are as shown: […]

[4] = Bimatoprost bulk sample elution, normalized to ng per device per day; assay type: physicochemical; conditions: for zero order elution rate: about 90 days
Procedure: Bulk samples of 1% Bimatoprost having a known diameter of 0.076 cm (0.76 mm) were prepared. The height of each sample was determined from the weight and known diameter of the sample.
The calculated heights ranged from 0.33 cm to 0.42 cm. The exposed surface area on each end of each bulk sample was approximately 0.045 cm2, providing volumes of 0.019 cm3 and 0.015 cm3 for the 0.42 and 0.33 cm samples, respectively. The exposed an exposed surface area of samples calculated from the height and diameter without a drug sheath was approximately 0.1 cm2. Three formulations were evaluated: 1) silicone 4011, 1% Bimatoprost, 0% surfactant; 2) silicone 4011, 1% Bimatoprost, approximately 11% surfactant; and 3) silicone 4011, 1% Bimatoprost, approximately 33% surfactant. The elution data measured for the bulk samples with formulation 1, 2 and 3 were normalized to ng per device per day (ng/device/day) assuming a surface area of the bulk device is 0.1 cm2 and the surface area of the clinical device is 0.00078 cm2 (0.3 mm diameter). […] The normalized elution profile is about 10 ng per day. […] Similar formulations can be used with drug core sheaths and a shaped exposed surface of the core exposed to the tear to increase the exposed surface area as described above and deliver the drug in therapeutic amounts over an extended period.

[5] = cited from earlier work
[6] = topical drop to the eye; cited from earlier work
[7] = formulations A-D (silicone 4011 or 6385, 10-20% Latanoprost, 0-20% NaCl), non-sterile cores

- elution rate ([1]; 7 μg core (10%, 0.32 mm diameter, 0.95 mm long), 10 to 20 days, compared with 14 μg core): comparable rates
- elution rate ([1]; 14 μg core (20%, 0.32 mm diameter, 0.95 mm long), from about 10 to 40 days): approximately 100 ng per day
- relative elution rate ([1]; 20% latanoprost in 6380 material with 2.5% crosslinker, 1, 4, 7 and 14 days, vs 6385 material): slightly lower elution rate
- relative elution rate ([1]; 20% latanoprost in 6380 material with 5% crosslinker, all time points): lowest elution rate
- relative elution rate ([1]; 20% latanoprost in 6385 material with 2.5% crosslinker, 1, 4, 7 and 14 days): highest elution rates
- relative elution rate ([1]; 6385 material with 5% latanoprost, all time periods): lowest rate
- elution rate ([1]; 6385 material with 5, 10, 20, 30 and 40% latanoprost, all samples, by 7 days): below 500 ng per day
- elution rate, both ends open/2 compared with one end open ([1]; 6385 material with 20% latanoprost, all time points): very close to the one end open data
- relative elution rate ([1]; 6385 material with 40% latanoprost, all time periods): highest rate
- initial elution of Latanoprost from plug ([1]; buffered saline elution system, initial): approximately 500 ng per day
- elution rate after dropping off ([1]; buffered saline elution system, within 7-14 days, depending on initial concentration): approximately 100 ng/day
- Latanoprost released (elution rate) ([1]; day 1, 0.006 inch diameter core, exposed surface area approx 0.02 mm2): about 200 ng
- Latanoprost released (elution rate) ([1]; day 1, 0.012 inch diameter core, exposed surface area approx 0.07 mm2): ~400 ng
- Latanoprost released (elution rate) ([1]; day 1, 0.025 inch diameter core, exposed surface area approx 0.32 mm2): ~1200 ng
- Latanoprost released (elution rate) ([1]; day 14, 0.006 inch diameter core, approx 0.02 mm2): about 25 ng
- Latanoprost released (elution rate) ([1]; day 14, 0.012 inch (0.32 mm) diameter core, approx 0.07 mm2): ~100 ng
- Latanoprost released (elution rate) ([1]; day 14, 0.025 inch diameter core, approx 0.32 mm2): ~300 ng
- elution rate ([1]; e-beam sterile core, 20% latanoprost in 6385, first day): about 450 ng/day
- elution rate by 3 weeks (21 days) [1, 7]: about 100 ng per device per day
- initial elution rate [1, 7]: approximately 300 ng per device per day
- elution rate ([1]; non-sterile core, 20% latanoprost in 6385, 14 day): about 150 ng/day
- elution rate ([1]; non-sterile core, 20% latanoprost in 6385, days 4 and 7): about 400 ng/day
- elution rate ([1]; non-sterile core, 20% latanoprost in 6385, first day): ~1400 ng/day
- elution rate ([1]; sterile core, 20% latanoprost in 6385, 14 day): 200 ng/day
- elution rate ([1]; sterile core, 20% latanoprost in 6385, days 4 and 7): about 400 ng/day
- Duration ([1]; total Latanoprost content 3.5 μg): ~25 days
- Duration ([1]; total Latanoprost content 7 μg): ~45 days
- Duration ([1]; total Latanoprost content 14 μg): ~100 days
- average inclusion diameter and standard deviation ([2]; Cold extrusion (−5° C.)): 0.006±0.002 mm
- maximum diameter of latanoprost droplets ([2]; MED6385 matrix, high pressure filling): less than 25 μm
- average inclusion diameter and standard deviation ([2]; Room temp (22° C.) extrusion): 0.019+0.019 mm and 0.019±0.019 mm
- average diameter of latanoprost droplets ([2]; cold extrusion (−5° C.)): 6 μm
- average diameter of latanoprost droplets ([2]; extrusion at room temperature): 19 μm
- average latanoprost content per 1 mm section (Average±SD) ([3]; Cold extrusion (−5° C.)): 20.9 ± 0.5 µg
- average latanoprost content per 1 mm section (Average±SD) ([3]; Room temperature (22° C.) extrusion): 20.2 ± 1.9 µg
SMILES: CC(C)OC(=O)CCC/C=C\C[C@@H]1[C@@H](CC[C@@H](O)CCc2ccccc2)[C@H](O)C[C@@H]1O [Latanoprost]
- duration of IOP lowering (IOP; about 200 ng of drug remaining on the eye after a drop of Xalatan): at least 24 hours
- IOP reduction relative to that of the 50 μg/mL QD dose (IOP; lowest doses of 12.5 μg/mL QD or 15 μg/mL BID): 60-75%

- elution rate ([1]; 20% bimatoprost in NuSil 6385, 0% salt, 1 day): about 100 ng per day
- relative elution rate ([1]; 20% bimatoprost in NuSil 6385, 0% salt, all time periods to two weeks): lowest elution rate
- elution rate ([1]; 20% bimatoprost in NuSil 6385, 10% salt, 1 day): 400 ng per day
- elution rate ([1]; 20% bimatoprost in NuSil 6385, 20% salt, 1 day): about 750 ng/day
- relative elution rate ([1]; 20% bimatoprost in NuSil 6385, 20% salt, all time periods to two weeks): highest elution rate
- zero order elution rate ([4]; scaled to 0.76 mm exposed diameter (0.0045 cm2)): about 60 ng per day
- zero order elution rate ([4]; scaled to exposed surface area about 0.0078 cm2): about 100 ng per day
- normalized elution profile ([4]; silicone 4011, 1% Bimatoprost, 0/11/33% surfactant bulk samples, normalized to 0.3 mm exposed surface diameter (0.00078 cm2)): about 10 ng per day
SMILES: CCNC(=O)CCC/C=C\C[C@@H]1[C@@H](/C=C/[C@@H](O)CCc2ccccc2)[C@H](O)C[C@@H]1O [Bimatoprost]
- release kinetics ([4]; from about ten days to about 90 days, each of the formulations 1-3): approximately zero order release kinetics

SMILES: O=C1OC2(c3ccc(O)cc3Oc3cc(O)ccc32)c2ccccc21 [Fluorescein]
- solubility in water [5]: soluble in water

SMILES: CC(C)(C)NC[C@H](O)COc1nsnc1N1CCOCC1 [Timolol]
- bioavailability [6]: 30-50%
